Values quoted from earlier work, collected in US20070232813A1, “Substituted Cyclohexadienals - Syntheses and Applications” (priority 2006, published 2007).

What was measured:
[1] = tested on: Sulfitobacter sp.; settings: at 100 μg, agar diffusion assay
[2] = tested on: Roseobacter sp.; settings: at 100 μg, agar diffusion assay

## CC(C)=CCCC1=CC=C(C=O)C(C)(CCC=C(C)C)C1 (centres unmarked) [citral dimer B, 6-Methyl-4,6-bis-(4-methyl-pent-3-enyl)-cyclohexa-1,3-dienecarbaldehyde]
[1]
  inhibition (anti-bacterial activity against Sulfitobacter sp.): 1.0 cm
[2]
  inhibition (anti-bacterial activity against Roseobacter sp.): 0.5 cm
